ChEMBL document CHEMBL2331543, “Optimization of heterocyclic substituted benzenesulfonamides as novel carbonic anhydrase IX inhibitors and their structure activity relationship” (Eur J Med Chem, 2013)

How the values were obtained:
Homo sapiens [1] = species on record: Homo sapiens; experiment: Selectivity ratio of IC50 for recombinant human carbonic anhydrase 1 to IC50 for recombinant human carbonic anhydrase 9
Carbonic anhydrase 1 = Carbonic anhydrase 1 (Homo sapiens, UniProt P00915); experiment: Inhibition of recombinant human carbonic anhydrase 1 after 15 mins by stopped flow CO2 hydration assay
Carbonic anhydrase 1, sequence (P00915 whole entry): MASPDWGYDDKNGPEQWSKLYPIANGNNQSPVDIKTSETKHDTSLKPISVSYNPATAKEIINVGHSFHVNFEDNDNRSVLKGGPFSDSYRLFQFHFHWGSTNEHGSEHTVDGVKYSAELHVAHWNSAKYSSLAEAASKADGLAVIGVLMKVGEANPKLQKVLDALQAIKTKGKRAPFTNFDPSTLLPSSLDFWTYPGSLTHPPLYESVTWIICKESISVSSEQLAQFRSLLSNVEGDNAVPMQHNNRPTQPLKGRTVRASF

Homo sapiens [2] = species on record: Homo sapiens; experiment: Selectivity ratio of IC50 for recombinant human carbonic anhydrase 2 to IC50 for recombinant human carbonic anhydrase 9
Carbonic anhydrase 2 = Carbonic anhydrase 2 (Homo sapiens, UniProt P00918); experiment: Inhibition of recombinant human carbonic anhydrase 2 after 15 mins by stopped flow CO2 hydration assay
Carbonic anhydrase 9 = Carbonic anhydrase 9 (Homo sapiens, UniProt Q16790); experiment: Inhibition of recombinant human carbonic anhydrase 9 after 15 mins by stopped flow CO2 hydration assay

Row | Compound | Ratio IC50 (Homo sapiens [1]) | IC50 (Carbonic anhydrase 1) | Ratio IC50 (Homo sapiens [2]) | IC50 (Carbonic anhydrase 2) | IC50 (Carbonic anhydrase 9)
1 | NS(=O)(=O)c1ccc(Nc2nnc(-c3ccc(C(F)(F)F)cc3)c3ccccc23)cc1 |  | > 10 µM |  | > 10 µM | > 3.9 µM
2 | Cc1ccc(-c2nnc(Nc3ccc(S(N)(=O)=O)cc3)c3ccccc23)cc1S(N)(=O)=O | > 10000 | > 10 µM | 1140 | 0.547 µM | 0.00048 µM
3 | NS(=O)(=O)c1cccc(Nc2nnc(-c3ccc(C(F)(F)F)cc3)c3ccccc23)c1 |  | > 10 µM |  | > 10 µM | 0.69 µM
4 | NS(=O)(=O)c1cccc(Nc2nnc(-c3ccccc3)c3ccccc23)c1 |  | > 10 µM |  | > 10 µM | > 0.69 µM
5 | COc1ccc(-c2nnc(Nc3cccc(S(N)(=O)=O)c3)c3ccccc23)cc1 |  | > 10 µM |  | > 10 µM | > 0.69 µM
6 | NS(=O)(=O)c1ccc(Nc2nnc(-c3ccc(Cl)cc3)c3ccccc23)cc1 |  | > 10 µM |  | > 10 µM | > 3.9 µM
7 | NS(=O)(=O)c1cccc(Nc2nnc(-c3ccc(Cl)cc3)c3ccccc23)c1 |  | > 10 µM |  | > 10 µM | > 0.69 µM
8 | Nc1ccc(Nc2nnc(-c3cccc(S(N)(=O)=O)c3)c3ccccc23)cc1 | > 100 | > 10 µM | 5.3 | 0.147 µM | 0.0283 µM

More lines, now with the values ahead:

Row | Ratio IC50 (Homo sapiens [1]) | IC50 (Carbonic anhydrase 1) | Ratio IC50 (Homo sapiens [2]) | IC50 (Carbonic anhydrase 2) | IC50 (Carbonic anhydrase 9) | Compound
9 | > 1000 | > 10 µM | 24.5 | 0.455 µM | 0.0185 µM | NS(=O)(=O)c1ccc(Nc2nnc(-c3cccc(S(N)(=O)=O)c3)c3ccccc23)cc1
10 | 25.7 | 0.0857 µM | 8.1 | 0.0268 µM | 0.0033 µM | Cc1cc(-c2nnc(Nc3ccc(S(N)(=O)=O)cc3)c3ccccc23)ccc1S(N)(=O)=O
11 |  | > 10 µM |  | > 10 µM | > 3.9 µM | NS(=O)(=O)c1ccc(Nc2nnc(-c3ccccc3)c3ccccc23)cc1
12 |  | 0.22 µM |  | 0.0618 µM | > 0.69 µM | COc1cccc(-c2nnc(Nc3cccc(S(N)(=O)=O)c3)c3ccccc23)c1
13 |  | > 10 µM |  | > 10 µM | 3.93 µM | COc1cccc(-c2nnc(Nc3ccc(S(N)(=O)=O)cc3)c3ccccc23)c1
14 | > 100 | > 10 µM | > 100 | > 10 µM | 0.029 µM | CC(C)(C)c1ccc(Nc2nnc(-c3cccc(S(N)(=O)=O)c3)c3ccccc23)cc1
